Data as given in patent EP4702986A1, “POLYPEPTIDE AND USE THEREOF” (Biocells (Beijing) Biotech Co., Ltd., priority 2023, dated 2024).
“Also recorded” adds a separate entry of the source. Numbered stars: 1 amine (or outer) side, 2 acyl side, 3 side chain; on linkers, the order of the positions; unused ones are H or OH. Side chains are listed from the residue outwards. Peptide text beside a SMILES is read from it. * marks the point of attachment. C18 diacid = O=C(O)CCCCCCCCCCCCCCCCC(=O)*; γGlu = O=C(O)[C@H](CCC(=O)[*:2])N[*:1]; Fumaroyl = O=C(O)/C=C/C(=O)*; Lauroyl = CCCCCCCCCCCC(=O)*; AEEA = NCCOCCOCC(=O)O

How the values were obtained:
in vivo = details: male, SD, rat, in vivo, iv
Experimental: (§1) In an experiment about acute toxicity of intravenous administration, male SD rats weighing 200-230 g were dosed in a range between 480 µg/Kg and 30 µg/Kg via tail vein injection in a descending order of dosage. […] Toxic response and mortality of the rats were preliminarily observed, and time of death and doses without mortality of the rats were recorded. The level of acute toxicity of the polypeptides was preliminarily determined based on the doses without mortality.

male SD rats [1] = experiment: in vivo; details: for Observations of Animal Status: one animal per row, observed 24 hours
Experimental: as §1

male SD rats [2] = details: male SD rats, subcutaneous, observed for 48 hours
Experimental: In an experiment about acute toxicity of subcutaneous administration, male SD rats weighing 200-230 g were dosed in a range between 60 µg/Kg and 960 µg/Kg. Observation was made for 48 hours after subcutaneous administration. Toxic response and mortality of the rats were preliminarily observed, and time of death and doses without mortality were recorded. The level of acute toxicity of the polypeptides was preliminarily determined based on the doses without mortality.

SD rats = details: rat, in vivo
Experimental: Male SD rats were anesthetized with isoflurane, and their neck hairs were shaved. A midline incision was made on the neck to expose the trachea. A ventilator and anesthesia machine for small animals were turned on, with concentration of an anesthetic gas set to 1.2, and its exit channel connected to an inlet of the ventilator. Tidal volume of the ventilator was set to 2 mL, the respiratory rate was 90 breaths/minute, and the respiratory ratio was 1:2. An outlet end of the ventilator was connected to a plastic hose, which was inserted into the rat's airway.
A machine and a software of a biological signal data acquisition and analysis system were turned on. One end of a data acquisition plate was connected to the plastic hose, and the other end was connected to a collector valve connected with a 1-mL syringe. The syringe was filled with heparinized saline, which was injected into the data acquisition plate to expel the air in the entire space until the heparinized saline flowed out from the other end of the plastic hose. The right common carotid arteries of the rats were isolated. A dead knot was made at the distal end and a slipknot at the proximal end of a right common carotid artery. A 1/2-sized incision was made in the artery between the knot with a microscissor, and the plastic hose with heparinized saline was inserted into the incision and fixed to prevent back-and-forth movement. The initial value of the blood pressure was set to zero with the zero-adjustment valve of the biological signal data acquisition and analysis system. The slipknot at the proximal end of the common carotid artery was untied, and real-time blood pressure data of the animal appeared on the software. […] The dosages of IRL1620, BX34, and BX229 were 5 µg/Kg, 42 µg/kg, and 6.6 µg/Kg, respectively.

mouse model of tMCAO = experiment: Garcia JH scoring in mouse model of tMCAO; assay type: in vivo, C57/6J mice
Experimental: Fifty-one male C57/6J mice, aged 10-12 weeks, weighing 25-30g, were housed for at least 2 days prior to the experiment to adapt to the environment (SPF Biotech). A mouse model of tMCAO was established. The mice were anesthetized with isoflurane. Their body temperature was controlled by a thermostatic blanket and monitored and maintained at 37±0.5°C. A middle incision was made in the skin on the mouse skull, the skin was pulled outward, and a bendable microneedle tip was fixed to the surface of the left parietal bone of the mouse skull. A middle incision on the neck was made to separate the right common carotid artery (CCA), external carotid artery (ECA) and internal carotid artery (ICA). According to the method of Longa (Longa et al., 1989), a silicone rubber-coated suture (RWD Life Science, suture end diameter: 0.22 mm-0.23 mm, MSMC23B120PK50) was introduced through an external carotid artery incision surgery and was slowly advanced through the internal carotid artery towards the origin of the middle cerebral artery. To ensure a sustained and successful occlusion of the middle cerebral artery, we monitored local cerebral blood flow of all stroke animals with a laser speckle flowmeter (generally, the blood flow can be reduced by 40-60% after stabilized). The suture was removed 45 min after the insertion for modeling, and the incision was sutured. Afterward, 1 mL of 37°C warm saline was injected subcutaneously, and the mice were placed on a heating pad until recovery. To alleviate pain, the mice were injected subcutaneously with Tilidine after awakening from anesthesia.
Successfully modeled C57 tMCAO mice were randomly assigned into three groups: a normal saline group, a 30µg/Kg BX229-Na administration group, and a 100µg/Kg BX229-Na administration group. Each group was administered once subcutaneously in the neck 4.5 hours after occlusion (D1), and was administered once more at the same sites and at the same time points on D3 and D6. A sham group included 6 animals. 2 mL/kg was administrated subcutaneously in the neck. Garcia JH scoring was made on D7 and D14 after administration. After the completion of the scoring on D14, the mice were euthanized and harvested for infarcted brain tissues, to extract total proteins. Changes in protein markers VEGF-A and BDNF in each experimental group were detected by ELISA. Table 19: Experimental Grouping and Dosing Regimen

[3] = Determination of half-lives of polypeptides (plasma, LC-MS); details: for half-life: C57 BL/6, mouse, plasma, iv
human ETA receptor = molecular target: T1, human ETA receptor (Homo sapiens, UniProt P25101); experiment: Selectivity of polypeptides on human ETA receptor (IP-One Gq kit, % of positive control ET1); assay type: cell-based; details: read-out: hETAR agonist activity, percentage of activity relative to ET1
T1 construct: expressed in transfected cells; host or cells: 293T-17 cells, transient transfection
T1 sequence (P25101 21-427): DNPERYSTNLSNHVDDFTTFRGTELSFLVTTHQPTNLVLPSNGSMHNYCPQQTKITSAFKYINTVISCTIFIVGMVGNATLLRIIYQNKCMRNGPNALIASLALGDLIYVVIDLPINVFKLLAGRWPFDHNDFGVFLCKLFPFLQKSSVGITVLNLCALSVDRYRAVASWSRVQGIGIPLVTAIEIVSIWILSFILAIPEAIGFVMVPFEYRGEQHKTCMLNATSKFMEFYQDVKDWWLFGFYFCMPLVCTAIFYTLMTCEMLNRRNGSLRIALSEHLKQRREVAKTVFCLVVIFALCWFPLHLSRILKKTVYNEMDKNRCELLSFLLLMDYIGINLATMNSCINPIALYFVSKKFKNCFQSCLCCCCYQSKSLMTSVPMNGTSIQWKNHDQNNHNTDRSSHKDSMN
Outline: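 293T-17 cells transiently transfected with human ETA receptor (48 h), 30,000 cells/well exposed to polypeptides for 1 h at 37°C; IP1 accumulation by HTRF (665/620 nm ratio). Activity given as % of ET1 at the same concentration after PBS-control subtraction.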

[4] = intravenous (tail vein) 60 µg/Kg
[5] = intravenous (tail vein) 120 µg/Kg
[6] = 30µg/Kg subcutaneously on D1, D3, D6
[7] = tMCAO mice, 30µg/Kg s.c. on D1, D3, D6
[8] = intravenous (tail vein) 240 µg/Kg

In the case of `CCCCCCCCCCCC(=O)N[C@@H](CCC(=O)NCCOCCOCC(=O)NCCCC[C@H](NC(=O)[C@H](Cc1c[nH]cn1)NC(=O)[C@H](C)NC(=O)[C@H](Cc1ccccc1)NC(=O)[C@H](Cc1ccc(O)cc1)NC(=O)[C@@H](NC(=O)[C@H](C)NC(=O)[C@H](CCC(=O)O)NC(=O)[C@H](CCC(=O)O)NC(=O)[C@H](CC(=O)O)NC(=O)/C=C/C(=O)O)C(C)C)C(=O)N[C@@H](CC(=O)O)C(=O)N[C@H](C(=O)N[C@H](C(=O)N[C@@H](Cc1c[nH]c2ccccc12)C(=O)O)[C@@H](C)CC)C(C)C)C(=O)O` [BX-229] (Fumaroyl-DEEAVYFAHK([AEEA-γGlu-Lauroyl])DVIW-OH), the MTD at 24 h (in vivo) is reported as 0.06 mg/kg, the “Observations of Animal Status” value (male SD rats [1]; [4]) is reported as “No obvious reaction within 1 hour; developed rapid breathing at 1 hour; recovered to normal after 10 minutes” and the “Observations of Animal Status” value (male SD rats [1]; intravenous (tail vein) 90 µg/Kg) is reported as “Died at 1 hour after administration; also recorded: Developed rapid breathing at 25 minutes after administration; recovered after 25 minutes; showed no willingness to move; also recorded: Developed rapid breathing and the body turned purple at 1 hour after administration; partially recovered after 30 minutes; also recorded: Developed rapid breathing and diarrhea at 45 minutes after administration; recovered after 25 minutes; also recorded: Developed rapid breathing at 44 minutes after administration; died of convulsions at 52 minutes after administration; also recorded: Developed rapid breathing at 43 minutes after administration; recovered after 30 minutes”. For the same molecule, the “Observations of Animal Status” value (male SD rats [1]; [5]) was “Died at 26 minutes after administration; had white discharge in the nasal cavity and developed diarrhea”, the “acute toxicity of subcutaneous administration compared with IRL1620” value (male SD rats [2]) was “much lower” and the “maximum extent of decrease in blood pressure, of the baseline blood pressure” value (SD rats) was 17.0%±2.0%. For the same molecule, the “time to the lowest blood pressure” value (SD rats) was 20 to 35 min, the “Maximum percentage of blood pressure reduction relative to baseline blood pressure (n = 3)” value (SD rats; iv) was 17.0%±2.0% and the “Time from baseline blood pressure to the lowest blood pressure” value (SD rats; iv) was 20 to 30 min. For the same molecule, the “Garcia JH-15 score on D7 compared with the normal saline group” value (mouse model of tMCAO; [6]) was “better scores than the normal saline group”, the “Garcia JH-15 score on D14 compared with the normal saline group” value (mouse model of tMCAO; [6]) was “better scores than that of the normal saline group” and the “Garcia JH-15 score on D7 compared with the normal saline group” value (mouse model of tMCAO; 100µg/Kg subcutaneously on D1, D3, D6) was “better scores than the normal saline group”. The “Garcia JH-15 score on D7 compared with the normal saline group” value (mouse model of tMCAO; [7]) was “better scores”, the “Garcia JH-15 score on D14 compared with the normal saline group” value (mouse model of tMCAO; [7]) was “better scores” and the “Garcia JH-15 score on D7 compared with the normal saline group” value (mouse model of tMCAO; tMCAO mice, 100µg/Kg s.c. on D1, D3, D6) was “better scores”. The “Garcia JH-15 score on D14 compared with the normal saline group” value (mouse model of tMCAO; tMCAO mice, 100µg/Kg s.c. on D1, D3, D6, P < 0.05) was “significantly different”, the “total score of the Garcia JH-15 score, higher than in the normal saline group by” value (mouse model of tMCAO; tMCAO mice, D7, 100µg/Kg s.c. on D1, D3, D6) was 1 point and the half-life [3] was 1.28 h.
`CCCCCCCCCCCC(=O)N[C@@H](CCC(=O)O)C(=O)NCCOCCOCC(=O)NCCCC[C@H](NC(=O)[C@H](Cc1c[nH]cn1)NC(=O)[C@H](C)NC(=O)[C@H](Cc1ccccc1)NC(=O)[C@H](Cc1ccc(O)cc1)NC(=O)[C@@H](NC(=O)[C@H](C)NC(=O)[C@H](CCC(=O)O)NC(=O)[C@H](CCC(=O)O)NC(=O)[C@H](CC(=O)O)NC(=O)/C=C/C(=O)O)C(C)C)C(=O)N[C@@H](CC(=O)O)C(=O)N[C@H](C(=O)N[C@H](C(=O)N[C@@H](Cc1c[nH]c2ccccc12)C(=O)O)[C@@H](C)CC)C(C)C` [BX-238] (Fumaroyl-DEEAVYFAHK([AEEA-Glu-Lauroyl])DVIW-OH) gave an activation at 10 µM (human ETA receptor) of -4.74%, an activation at 100 µM (human ETA receptor) of -5.07% and an MTD at 24 h (in vivo) of 0.03 mg/kg. For the same molecule, the “Observations of Animal Status” value (male SD rats [1]; intravenous (tail vein) 30 µg/Kg) was “Breathing speeded up at 53 minutes, showed no willingness to move at 1.2 hours; found dead the next morning (estimated to have died during the night); also recorded: Breathing speeded up at 50 minutes, showed no willingness to move at 1.2 hours; found dead the next morning (estimated to have died during the night)”, the “Observations of Animal Status” value (male SD rats [1]; [4]) was “Developed rapid breathing at 40-45 minutes; died at 1 hour” and the “Observations of Animal Status” value (male SD rats [1]; [5]) was “Developed rapid breathing at 5 minutes, the eyes turned pale and purple at 14 minutes; died at 16 minutes”. The “Observations of Animal Status” value (male SD rats [1]; [8]) was “Developed abdominal breathing at 5-6 minutes, developed rapid breathing and collapsed at 9 minutes; died at 11 minutes” and the half-life [3] was 0.883 h.
In the case of `CC[C@H](C)[C@H](NC(=O)[C@H](CC(=O)O)NC(=O)[C@H](CC(C)C)NC(=O)[C@H](Cc1c[nH]cn1)NC(=O)[C@H](C)NC(=O)[C@H](Cc1ccccc1)NC(=O)[C@H](Cc1ccc(O)cc1)NC(=O)[C@@H](NC(=O)[C@H](C)NC(=O)[C@H](CCC(=O)O)NC(=O)[C@H](CCC(=O)O)NC(=O)[C@H](CCCCNC(=O)COCCOCCNC(=O)COCCOCCNC(=O)CC[C@H](NC(=O)CCCCCCCCCCCCCCCCC(=O)O)C(=O)O)NC(=O)/C=C/C(=O)O)C(C)C)C(=O)N[C@H](C(=O)N[C@@H](Cc1c[nH]c2ccccc12)C(=O)O)[C@@H](C)CC` [BX-253] (Fumaroyl-K([AEEA-AEEA-γGlu-C18 diacid])EEAVYFAHLDIIW-OH), the activation at 10 µM (human ETA receptor) is reported as -12.9%, the activation at 100 µM (human ETA receptor) is reported as -9.03% and the MTD at 24 h (in vivo) is reported as 0.48 mg/kg. For the same molecule, the “Observations of Animal Status” value (male SD rats [1]; [8]) was “No abnormalities”, the “Observations of Animal Status” value (male SD rats [1]; intravenous (tail vein) 480 µg/Kg) was “No abnormalities” and the “acute toxicity of intravenous administration (comparison among polypeptides)” value (male SD rats [1]; male SD rats, tail vein injection) was “lowest acute toxicity”. For the same molecule, the half-life [3] was 1.05 h and the “AUClast 0-30 min” value ([3]; C57 BL/6 mice, i.v., dosage per compound 0.48, 0.96 or 1 mpk) was 3989 ng·h/mL.
